The values below come from PMC4820309, “Pseudopterosin A: Protection of Synaptic Function and Potential as a Neuromodulatory Agent” (Marine Drugs, 2016).

Read-outs that look alike come from different tables or passages of the source.

Series [1] concerns Drosophila larval NMJ. As to the kind of experiment: Synaptic transmission at the Drosophila larval NMJ during NaN3-induced oxidative stress (EJP recording until synaptic failure). The following applies: for average time until synaptic failure: mean ± SE. The format is cell-based, Drosophila melanogaster. The procedure:
(§1) This study used wild-type Canton-S Drosophila melanogaster third instar wandering larvae (~110 h old). All larvae were raised within an equal population density in 170 mL plastic culture bottles (~100 flies per bottle) containing 50 mL of Nutri-Fly Bloomington Formulation (Genessee Scientific, San Diego, CA, USA) fly food in an incubator at 25 °C under a 12 h:12 h light–dark light cycle.
(§2) Synaptic transmission was measured in Canton-S animals as previously described. Briefly, individual Canton-S third instar larvae were placed in a glass dissecting dish containing 2 mL of Schneider’s insect medium (Sigma, St. Louis, MO, USA) with the dorsal side up using standard insect pins. A longitudinal cut was made along the dorsal surface and the internal organs and central nervous system were removed to expose the underlying segmental muscles and nerves. An extracellular glass suction electrode was used to stimulate segmental nerves in muscle segments. The postsynaptic excitatory junction potential (EJP) was recorded from muscle 6 in abdominal segment A3 or A4 with a sharp intracellular glass recording electrode filled with 3 M KAc (~40 MΩ). The Schneider’s insect medium was replaced with 2 mL of hemolymph-like (HL-3) saline (1.5 mM CaCl2, 20 mM MgCl2, 5 mM KCl, 70 mM NaCl, 10 mM NaHCO3, 5 mM BES, 115 mM sucrose, 5 mM trehalose·2H2O) made fresh daily. EJP recordings were viewed with an oscilloscope and digitally stored using the Scope program (AD Instruments, Colorado Springs, CO, USA) for analysis. Evoked EJPs from repetitive stimulation (0.3 ms pulses delivered suprathreshold with a 1 Hz frequency) of both axons in larval muscle 6 were recorded in a stop-flow condition until synaptic transmission failure (amplitude < 1 mV).
(§3) The same electrophysiology preparation assay described above was performed; however, Canton-S larvae were also exposed to oxidative stress, Trolox, and PsA. Oxidative stress was induced in larval preparations by adding either 1 mM H2O2 or 75 µM NaN3 to the HL-3 saline (all chemicals obtained from Sigma, St. Louis, MO, USA). Larvae subjected to oxidative stress and simultaneous drug treatment included one of the following agents dissolved in DMSO: 5 µM Trolox or 1 µM PsA. A dose-response assay from 0.5 to 10 µM was performed to determine the effective concentration of PsA to prolong synaptic transmission at the Drosophila larval NMJ during oxidative stress exposure (Figure 3).
(§4) All synaptic function data were analyzed using SigmaPlot (Systat Software, San Jose, CA, USA) statistical analysis software. A one-way analysis of variance (ANOVA) test followed by a post hoc multiple comparisons procedure (Holm–Šidák) was used to compare significant differences across all treatment groups. Statistical significance (p < 0.05) was assigned using letter designations, where different letters show significant differences and the same letter assignments are not significant. The letter assignments begin with “A” representing the highest mean, “B” indicating the next highest, and so forth. All vertical bar charts are shown with the means ± SE.

In series [2] the test system is Drosophila larval NMJ. As to the kind of experiment: Synaptic transmission at the Drosophila larval NMJ during H2O2-induced oxidative stress (EJP recording until synaptic failure). The format is cell-based, Drosophila melanogaster. The procedure:
as §1, §2, §3, §4

On the set-up of series [3]: method as in PMID 22851883. The note with it: cited from earlier work.
Series [4] is described as follows: Pharmacokinetics and tissue distribution of PsA in mice after IV bolus. It counts as in vivo, mouse. The note with it: for Kp / half-life: mouse, iv, 50 mg/kg; for AUC (AUClast): linear trapezoidal rule. The procedure:
After spiking with 10 µL of 17β-estradiol (100 µg/mL), 100 µL plasma or […] of tissue homogenate (prepared as above) was mixed with 300 µL of acetonitrile and vortex-mixed for 15 s. The samples were then extracted with 0.6 mL of ethyl acetate. After centrifugation for 10 min at 2000× g, the upper organic layer was removed and evaporated to dryness under reduced pressure in a vacuum centrifuge. The residue obtained was reconstituted in 80 µL acetonitrile with ultrasonic treatment for 1 min and the derivatization was performed as follows.
The HPLC measurements were carried out using a Shimadzu LC-20AT liquid chromatography, which were coupled to a UV-SPD-M20A diode array detector. Data acquisition was performed using EZStart chromatography software package version 7.4. The chromatographic separation of NBD-Cl -derivative of PsA was achieved using Phenomenex Gemini 5 µm C18 110 Å column with a Phenomenex Security Guard C18 guard column (Torrance, CA, USA). The Mobile phase: A: 20 mM AcONH4 (pH = 7.4): ACN (2:1); B: CAN. Running program: 0–5 min, 80%–90% B; 5–7 min, 90% B; 7–12 min, 90%–100% B; 12–15 min, 100%–80% B. The mobile phase flow rate was 1.0 mL/min and the UV detection wavelength was set to 378 nm. Under the chromatographic conditions described, NBD-Cl derivatives of PsA and 17β-estradiol eluted at 7.3 and 5.5 min, respectively.
(Pharsight, Mountain View, CA, USA).

A further series deals with mice. As to the kind of experiment: Tolerability in mice after 50 mg/kg intravenous injection.
[5] abbreviates: male, NIH Swiss, mouse brain, 50 mg/kg IV.
Setting [6] is: male, NIH Swiss, mouse kidney, 50 mg/kg IV.
Setting [7] is: male, NIH Swiss, mouse liver, 50 mg/kg IV.
The mark [8] stands for this setting: male, NIH Swiss, mouse plasma, 50 mg/kg IV bolus, estimate ± standard error.

For the compound `Cc1c(C)c2c(c(C)c1O)CCC(C)(C(=O)O)O2` (centres unmarked) [Trolox, 6-hydroxy-2,5,7,8-tetramethylchromane-2-carboxylic acid, reference compound], the “increase of synaptic activity” value in the series with Drosophila larval NMJ [1] (Trolox 5 µM during NaN3 75 µM exposure, vs NaN3 alone) is listed as 25%. In addition, in the series on Drosophila larval NMJ [1] (Trolox 5 µM with NaN3 75 µM), the “maximal time until synaptic breakdown” value came out at 64 min and the “average time until synaptic failure” value was found to be 55 ± 3 min. For the same compound, in the series on Drosophila larval NMJ [2] (Trolox 5 µM during H2O2 1 mM exposure, vs H2O2 alone), the “increase of synaptic function” value was found to be 60%. Besides, the “maximal time until synaptic breakdown” value in the series with Drosophila larval NMJ [2] (Trolox 5 µM with H2O2 1 mM) came to 85 min. The “average time until synaptic transmission failure” value in the series with Drosophila larval NMJ [2] (Trolox 5 µM with H2O2 1 mM, mean ± SE) stood at 80 ± 2 min.
The term half-life denotes the time needed for the level to fall by half in the phase considered. Usually Cmax stands for the maximum level reached in the sampled fluid or tissue. Broadly, the Tmax is the time at which the peak concentration occurs. A word on the AUC: it is concentration integrated over time. One may read the clearance as the volume of plasma or blood freed of the substance per unit of time. On to `CC(C)=C[C@H]1C[C@H](C)[C@H]2CC[C@H](C)c3c(O[C@@H]4OC[C@@H](O)[C@H](O)[C@H]4O)c(O)c(C)c1c32` [PsA, pseudopterosin A], for which the lipophilicity entry in series [3] was “high lipophilicity”. For the same compound, the “increase of synaptic tolerance” value came out at 87% in the series with Drosophila larval NMJ [1] (PsA 500 nM during NaN3 75 µM exposure, vs NaN3 alone) and 26% in the series with Drosophila larval NMJ [2] (PsA 1 µM during H2O2 1 mM exposure, vs H2O2 alone). Moreover, the “average time until synaptic failure” value with Drosophila larval NMJ [1] (PsA 500 nM with NaN3 75 µM) was determined as 83 ± 5 min; with Drosophila larval NMJ [1] (PsA 1 µM with NaN3 75 µM, failure = EJP amplitude < 1 mV) it was 112 ± 4 min. The “increase of synaptic functional tolerance” value in the series with Drosophila larval NMJ [1] (PsA 1 µM during NaN3 75 µM exposure, vs NaN3 alone) is 152%. Moreover, the “maximal synaptic failure time” value in the series with Drosophila larval NMJ [1] (PsA 1 µM with NaN3 75 µM) is 122 min; in the series on Drosophila larval NMJ [2] (PsA 1 µM with H2O2 1 mM), 70 min. Further, the “average time until synaptic transmission failure” value with Drosophila larval NMJ [2] (PsA 1 µM with H2O2 1 mM, mean ± SE) was found to be 63 ± 2 min. Further, the Kp in series [4] (male, NIH Swiss, brain / plasma, mouse brain, 50 mg/kg IV, read-out: Relative Exposure (AUCtissue/AUCplasma)) is 1.36; in series [4] (male, NIH Swiss, brain, liver, kidney / plasma, all tissues (brain, liver, kidney) vs plasma, 50 mg/kg IV, read-out: relative exposure (RE)) it was 1.27 to 1.36; in series [4] (male, NIH Swiss, brain, liver, kidney / plasma, brain, liver and kidney during the elimination phase, 50 mg/kg IV, read-out: tissue/plasma concentration ratios), more than 1; in series [4] (male, NIH Swiss, kidney / plasma, mouse kidney, 50 mg/kg IV, read-out: Relative Exposure (AUCtissue/AUCplasma)), 1.28; in series [4] (male, NIH Swiss, liver / plasma, mouse liver, 50 mg/kg IV, read-out: Relative Exposure (AUCtissue/AUCplasma)), 1.27. For the same compound, the half-life in series [4] (male, NIH Swiss, brain, mouse brain, 50 mg/kg IV, read-out: Half-life (converted)) was 2.91 h; in series [4] (male, NIH Swiss, kidney, mouse kidney, 50 mg/kg IV, read-out: Half-life (converted)), 3.98 h; in series [4] (male, NIH Swiss, liver, mouse liver, 50 mg/kg IV, read-out: Half-life (converted)), 3.16 h; in series [4] (male, NIH Swiss, plasma, brain, liver, kidney, mouse plasma and tissues (brain, liver, kidney), 50 mg/kg IV, read-out: elimination half-life) it was 3 to 4 h; in series [4] (male, NIH Swiss, plasma, mouse plasma, 50 mg/kg IV bolus, two-compartment model, estimate ± standard error, read-out: Distribution Half-life (converted)) it was 0.05 ± 0.005 h; in series [4] (male, NIH Swiss, plasma, mouse plasma, 50 mg/kg IV bolus, two-compartment model, estimate ± standard error, read-out: Elimination Half-life (converted)) it was 3.21 ± 0.3 h. Also, the Cmax was 10000 ng/g in series [4] (setting [5]), 3000 ng/g in series [4] (setting [6]), 10100 ng/g in series [4] (setting [7]) and 85.5 ± 7.64 µg/mL in series [4] (setting [8]). In addition, the values for the time to peak (Tmax) in series [4] (setting [5]), in series [4] (setting [6]) and in series [4] (setting [7]) were 0.5 h, 1.5 h and 0.17 h, respectively. The AUC in series [4] (setting [8]) was 14.3 ± 0.95 µg·h/mL. The clearance in series [4] (setting [8]) was 3.48 L/h/kg. For the same compound, the Vd in series [4] (male, NIH Swiss, mouse plasma, 50 mg/kg IV bolus, estimate ± standard error, read-out: Vss) is 10.1 ± 1.35 L/kg. For the same compound, the “time of peak mean concentration” value was 30 min in series [4] (mouse brain, 50 mg/kg IV); 90 min in series [4] (mouse kidney, 50 mg/kg IV); 10.2 min in series [4] (mouse liver, 50 mg/kg IV). For the same compound, the “AUC (AUClast)” value in series [4] (mouse brain, 50 mg/kg IV) came out at 19.49 mg·h/kg; in series [4] (mouse kidney, 50 mg/kg IV), 18.37 mg·h/kg; in series [4] (mouse liver, 50 mg/kg IV) it was 18.20 mg·h/kg. In addition, in the series with mice, the “tolerability of the dose” value is “well tolerated”.
Regarding `[N-]=[N+]=[N-].[Na+]` [NaN3, sodium azide, reference compound], the “average time of synaptic activity until failure” value with Drosophila larval NMJ [1] (NaN3 75 µM alone, control 130 ± 3 min) turned out to be 44 ± 3 min. In addition, the “maximal time of synaptic activity before failure” value with Drosophila larval NMJ [1] (NaN3 75 µM alone, controls 136 or 139 min) is 52 min.
In the case of `OO` [H2O2, hydrogen peroxide], in the series with Drosophila larval NMJ [2] (H2O2 1 mM alone, control 132 ± 3 min), the “average time until synaptic transmission failure” value is reported as 50 ± 2 min. For the same compound, the “maximal time of synaptic activity before failure” value in the series with Drosophila larval NMJ [2] (H2O2 1 mM alone, controls 136 or 139 min) is reported as 55 min.
